Source: patent US4067997A, “Synergistic microbecidal composition and method” (priority 1976, dated 1978)

Experiments:
Assay type in all cases: cell-based
[1] = test system: nine gram-positive organisms and the yeast/fungus Candida; experiment: MIC, broth dilution, over all organisms (Examples I/II); details: all except streptococcus Group D; from essentially as active up to
Method: In order to establish comparative bactericidal and fungicidal results with homologous fatty acids, a series of experiments was performed with thirty straight-chain fatty acids and derivatives thereof. Eight different gram-negative and twelve different gram-positive organisms, representing a very broad spectrum of organisms, were used in these experiments including the fungus Candida (a yeast). Additionally, fatty acids were chosen to show the effects of saturation versus unsaturation, in the fatty acid claim. Standard solutions of the fatty acids and their derivatives were prepared by first dissolving the weighed compounds in 1 to 2 ml of 95% ethanol and immediately pouring this solution into 200 ml of Tripticase Soy Broth. These lipid compounds which are insoluble in water and broth precipitated into very small crystals or droplets. The tubes containing the suspension were warmed to approximately 70° C and were then placed in an ultrasonic tank for further solubilization of the lipid derivatives.
Standard solutions (or suspensions) at 1,000 μg/ml were twofold serially diluted with additional broth to a concentration of 125 μg/ml. A 4-ml amount of each dilution was then quickly, and with constant agitation, dispensed into appropriately labeled screw-capped glass tubes (16 by 125 mm). The tubes were sterilized with steam at 15 psi for 15 minutes. After sterilization, all tubes were cooled and incubated overnight at 35° C to insure sterility.
All compounds were compared on a molar (micromoles/milliliter) rather than on a mass basis. In the following lists of organisms used, those followed by a parenthetical number are registered with the American Type Culture Collection (ATCC); the remainder were isolates from Providence Hospital or Northland Laboratory.
Staphylococcus aureus, S. epidermidis, beta-hemolytic streptococci (Group A and non-group A), group D streptococcus, Bacillus subtilis (6051), Sarcina lutea (9431), Micrococcus sp., Candida albicans, Nocardia asteroids (3308), Corynebacterium sp. (10700), and pneumococcus (63001).
One drop (0.04 ± 0.01 ml) of an 18-hr broth culture containing 10^7 and 10^9 organisms/ml was added to each dilution of the test compound, as well as to a tube of plain broth which served as the positive control. After inoculation, the contents of each tube were well mixed, and the tubes were incubated at 35° C in a 5% carbon dioxide + […] atmosphere.
The MIC is defined as the lowest concentration of compound at which no […] evidence of growth was observed when turbidity of the inoculated broth dilutions was compared with control tubes. […] Only a one-tube difference between the bactericidal and bacteriostatic concentrations was normally observed.
Table 5 presents a comparison of the C10 and C12 free acids and their glyceryl derivatives, and Table 6 gives the corresponding ranges of activity.
Standard solutions (1000 μg/ml) of three fatty acids and polyglycerol esters thereof were prepared as described in Example I. Also sucrose esters were prepared by transferring the weighed compounds (0.2 gm. dissolved in 1 ml absolute methanol) into 200 ml of sterile Trypticase Soy Broth (TSB). These standard solutions (1000 μg/ml) were twofold serially diluted with additional sterile broth to a concentration of 125 μg/ml. A 3.8 aliquot of each dilution was asceptically delivered into sterile screw-capped culture tubes. All tubes were incubated overnight at 36° C to insure sterility. The microorganisms used in this example were the same as those used in Example I.
The inoculum, 0.05 ml of an 13-24 hour TSB culture (approximately 10^9 organisms/ml) was asceptically delivered into all dilutions of the compounds, mixed well, and incubated at 36° C. […]

[2] = test system: Nocardia asteroides; experiment: MIC on mass basis (Example V procedure)
Method: (§1) The essential procedure of Example I was followed with a series of phenolic compounds, with the exception that the test method was conducted on a mass (μg/ml) basis rather than a molecular (mol/ml) basis of the foregoing tests, since the long established phenol-coeffecient test is on a mass rather than molecular basis. Additionally, a different but closely related group of organisms were used in this test, in order to give a complete representative span on gram-negative, gram-positive and fungus organisms. Additionally, the phenolic derivatives chosen for test purposes include a number of derivatives which are presently accepted by the FDA as food-grade phenolic microbicides.
(§2) The same procedure of Example V was repeated but with combinations of mono-laurin (GML).
(§3) The procedure of Example V was repeated with combinations of glycerol mono-laurin (GML) and ethylenediamine tetraacetic acid (EDTA) as the calcium salt and in combination with BHA.

[3] = test system: Saccharomyces cerevisiae; experiment: MIC on mass basis (Example V procedure)
Method: as §1, §2, §3

[4] = test system: Staphylococcus aureus; experiment: MIC on mass basis (Example V procedure)
Method: as §1, §2, §3

[5] = test system: Streptococcus agalactiae; experiment: MIC on mass basis (Example V procedure)
Method: as §1, §2, §3

[6] = test system: Escherichia coli; experiment: MIC on mass basis (Example V procedure)
Method: as §1, §2, §3

[7] = test system: Candida albicans; experiment: MIC on mass basis (Example V procedure)
Method: as §1, §2, §3

[8] = test system: Pseudomonas aeruginosa; experiment: MIC on mass basis (Example V procedure)
Method: as §1, §2, §3

SMILES: CCCCCCCCCCCC(=O)OCC(O)CO (stereo not drawn) [GML, glycerol mono-laurin]
- Activity of mono-laurin relative to mono-capric [1]: ≤ 5.5 times
- MIC ([2]; Table 13, Nocardia asteroides): 15.60 µg/mL
- MIC ([2]; Table 14, Nocardia asteroides): 7.80 µg/mL
- MIC ([2]; Table 16, Nocardia asteroides, no unit in table): 10
- MIC of GML ([2]; Table 17, EDTA 0): < 10 µg/mL
- MIC of GML ([2]; Table 17, EDTA 125): 100 µg/mL
- MIC of GML ([2]; Table 17, EDTA 250): < 10 µg/mL
- MIC of GML ([2]; Table 17, EDTA 500): < 10 µg/mL
- MIC of GML ([2]; Table 17, EDTA 1,000): < 10 µg/mL
- MIC of GML ([2]; Table 17, EDTA 5,000): < 10 µg/mL
- MIC of GML ([2]; Table 17, EDTA 10,000): < 10 µg/mL
- MIC ([3]; Table 13, Saccharomyces cerevisiae): < 1,000 μg/ml
- MIC ([3]; Table 14, Saccharomyces cerevisiae): 1,000 μg/ml
- MIC ([3]; Table 16, Saccharomyces cerevisiae, no unit in table): 1,000
- MIC of GML ([3]; Table 17, EDTA 0): 1,000 μg/ml
- MIC of GML ([3]; Table 17, EDTA 125): 500 µg/mL
- MIC of GML ([3]; Table 17, EDTA 250): 100 µg/mL
- MIC of GML ([3]; Table 17, EDTA 500): 100 µg/mL
- MIC of GML ([3]; Table 17, EDTA 1,000): < 10 µg/mL
- MIC of GML ([3]; Table 17, EDTA 5,000): < 10 µg/mL
- MIC of GML ([3]; Table 17, EDTA 10,000): < 10 µg/mL
- MIC ([4]; Table 13, Staphylococcus aureus): 31.25 µg/mL
- MIC ([4]; Table 14, Staphylococcus aureus): 31.25 µg/mL
- MIC ([4]; Table 16, Staphylococcus aureus, no unit in table): 1,000
- MIC of GML ([4]; Table 17, EDTA 0): 1,000 μg/ml
- MIC of GML ([4]; Table 17, EDTA 125): 1,000 μg/ml
- MIC of GML ([4]; Table 17, EDTA 250): 1,000 μg/ml
- MIC of GML ([4]; Table 17, EDTA 500): 500 µg/mL
- MIC of GML ([4]; Table 17, EDTA 1,000): 100 µg/mL
- MIC of GML ([4]; Table 17, EDTA 5,000): < 10 µg/mL
- MIC of GML ([4]; Table 17, EDTA 10,000): < 10 µg/mL
- MIC ([5]; Table 13, Streptococcus agalactiae): 15.60 µg/mL
- MIC ([5]; Table 14, Streptococcus agalactiae): 31.25 µg/mL
- MIC ([6]; Table 13, Escherichia coli): > 1,000 μg/ml
- MIC ([6]; Table 14, Escherichia coli): > 1,000 μg/ml
- MIC ([6]; Table 16, Escherichia coli, no unit in table (Example 5 procedure, mass basis)): > 1,000
- MIC of GML ([6]; Table 17, EDTA 0): > 10,000 μg/ml
- MIC of GML ([6]; Table 17, EDTA 125): > 10,000 μg/ml
- MIC of GML ([6]; Table 17, EDTA 250): > 10,000 μg/ml
- MIC of GML ([6]; Table 17, EDTA 500): > 10,000 μg/ml
- MIC of GML ([6]; Table 17, EDTA 1,000): > 10,000 μg/ml
- MIC of GML ([6]; Table 17, EDTA 5,000): > 10,000 μg/ml
- MIC of GML ([6]; Table 17, EDTA 10,000): > 10,000 μg/ml
- MIC ([7]; Table 13, Candida albicans): > 1,000 μg/ml
- MIC ([7]; Table 14, Candida albicans): > 1,000 μg/ml
- MIC ([7]; Table 16, Candida albicans, no unit in table): > 1,000
- MIC of GML ([7]; Table 17, EDTA 0): > 10,000 μg/ml
- MIC of GML ([7]; Table 17, EDTA 125): 500 µg/mL
- MIC of GML ([7]; Table 17, EDTA 250): 500 µg/mL
- MIC of GML ([7]; Table 17, EDTA 500): 100 µg/mL
- MIC of GML ([7]; Table 17, EDTA 1,000): 100 µg/mL
- MIC of GML ([7]; Table 17, EDTA 5,000): 100 µg/mL
- MIC of GML ([7]; Table 17, EDTA 10,000): 100 µg/mL
- MIC ([8]; Table 13, Pseudomonas aeruginosa): > 1,000 μg/ml
- MIC ([8]; Table 14, Pseudomonas aeruginosa): > 1,000 μg/ml
- MIC ([8]; Table 16, Pseudomonas aeruginosa, no unit in table): > 1,000
- MIC of GML ([8]; Table 17, EDTA 0): > 10,000 μg/ml
- MIC of GML ([8]; Table 17, EDTA 125): > 10,000 μg/ml
- MIC of GML ([8]; Table 17, EDTA 250): > 10,000 μg/ml
- MIC of GML ([8]; Table 17, EDTA 500): > 10,000 μg/ml
- MIC of GML ([8]; Table 17, EDTA 1,000): > 10,000 μg/ml
- MIC of GML ([8]; Table 17, EDTA 5,000): 100 µg/mL
- MIC of GML ([8]; Table 17, EDTA 10,000): < 10 µg/mL
